≈ marks a conversion by molar mass, not a printed value. Where two headings read alike, the source gives them in different places.
What was measured:
[1] = Solid stability study of the crystal form A (high temperature, high humidity, light; XRPD, appearance, content, related substances); type: physicochemical
[2] = system: Escherichia coli ATCC BAA-2523(OXA-48); assay: Antibacterial activity MIC, micro-liquid dilution method (CLSI); type: cell-based; conditions: ATCCBAA2523, E. coli ATCC BAA-2523 Class D (OXA-48)
From the text: Three strains of Klebsiella pneumonia, ATCC BAA-205 (TEM-1/SHV-1/SHV-12), ATCC BAA-1705 (KPC-2), ATCC BAA-2470 (NDM-1), Enterobacter cloacae ATCC BAA-1143 (AmpC), two strains of Escherichia coli ATCC BAA-2523(OXA-48), ATCC 25922 were used to determine the minimum inhibitory concentration (MIC) of each of the compounds by a micro-liquid dilution method according to the Institute of Clinical and Laboratory Standard (CLSI) requirements. A 2-fold serial dilution of the compound (final concentration ranging from 0.125 μg/ml to 128 µg/ml) was added to a round-bottom 96-well plate (Catalog #3788, Corning), fresh monoclonal bacteria were selected from an overnight cultured Mueller Hinton II Agar medium plate (MHA, Cat. No. 211438, BD BBL™) and suspended in sterile saline, the concentration was adjusted to 1×10^8 CFU/mL, and then the solution was diluted by using a cation-adjusted Hinton Mueller culture medium Cation-Adjusted Mueller Hinton II Broth (MHB, Catalog #212332, BD BBL™) to a concentration of 5×10^5 CFU/ml, and 100 μl of the solution was added to a round bottom 96-well plate containing the drugs. The plate was placed upside down at 37° C. and the MIC value was read after 20-24 h of incubation, and the lowest drug concentration that inhibited the growth of bacteria was set as MIC. For the results see Table 1. Colony-Forming Units (CFU) refers to the total number of bacterial colonies per unit volume.

[3] = Pharmacokinetics study in rats in vivo, intravenous administration; design: species or system SD male rats; conditions: for AUC(0-t) / C0 / clearance / half-life / Vd: Sprague-Dawley (SD), rat, plasma, SD male rats, dissolved in saline; for AUC(0-t): read-out: AUC0-last Area under plasma concentration-time curve; for C0: read-out: C0 Initial concentration; for clearance: read-out: Cl Clearance rate; for half-life: read-out: T1/2 Half-life period (converted); for Vd: read-out: Vdss Apparent volume of distribution
Procedure: The pharmacokinetic characteristics in rodents after intravenous administration of the compound was tested with standard scheme. Specifically, SD male rats at the age of 7-10 weeks were administered intravenously with the candidate compound in the experiment. The compound was dissolved in salt water to prepare a clear solution. The plasma samples are collected and analyzed by LC-MS/MS, and the pharmacokinetic parameters were calculated.

[4] = system: Escherichia coli ATCC 25922; assay: Spontaneous drug resistance mutation rate (FOR); type: cell-based; conditions: for Drug resistance frequency (24 h) / Drug resistance frequency (48 h) / Drug resistance frequency (72 h): selected total colony count 2.60E+08 CFU
Procedure: Escherichia coli ATCC 25922 was used to carry out a micro-liquid dilution method according to the Institute of Clinical and Laboratory Standard (CLSI) requirements, the colony for selection with a total colony count of 2.60E+08CFU in Colony-Forming Units (CFU) was selected, […], 4, 8, 16, 32-fold of minimum inhibitory concentration (MIC), and the drug resistance frequency was calculated.

[5] = Light 10 days (visible light intensity 5000 lux and ultraviolet intensity 90 μw/cm^2, open)
[6] = intravenous injection at 100 mg/kg
[7] = intravenous injection at 300 mg/kg

For `NC[C@@H]1CN(C[C@@H]2[C@H](NC(=O)/C(=N\OC3(C(=O)O)CC3)c3csc(N)n3)C(=O)N2S(=O)O)S(=O)(=O)N1` (stereo in doubt), the Purity % ([1]; 0 day) was 85.6%, the Total impurities % ([1]; 0 day) was 14.4% and the Purity % ([1]; 25° C./75% RH-5 days (open)) was 87.4%. For the same compound, the Total impurities % ([1]; 25° C./75% RH-5 days (open)) was 12.6%, the Purity % ([1]; 25° C./75% RH-10 days (open)) was 85.4% and the Total impurities % ([1]; 25° C./75% RH-10 days (open)) was 14.6%. The “Related substances and contents (conclusion)” value ([1]; 60° C., 25° C./75% RH and light conditions) was “did not change significantly”, the Purity % ([1]; 60° C.-5 days (open)) was 87.3% and the Total impurities % ([1]; 60° C.-5 days (open)) was 12.7%. For the same compound, the Purity % ([1]; 60° C.-10 days (open)) was 86.6%, the Total impurities % ([1]; 60° C.-10 days (open)) was 13.4% and the Purity % [1, 5] was 86.4%. For the same compound, the Total impurities % [1, 5] was 13.6%, the Purity % ([1]; Light control -10 days) was 86.8% and the Total impurities % ([1]; Light control -10 days) was 13.2%. The “Solid stability (conclusion)” value ([1]; high temperature, high humidity and light conditions) was “stable”, the MIC [2] was 0.125 µg/mL (≈ 0.221 µM) and the AUC(0-t) [3, 6] was 166 µM·h. For the same compound, the C0 [3, 6] was 581 µM, the clearance [3, 6] was 17.2 mL/min/kg and the half-life [3, 6] was 18.7 min. The Vd [3, 6] was 0.378 L/kg, the AUC(0-t) [3, 7] was 467 µM·h and the C0 [3, 7] was 1380 µM. It also gave a clearance [3, 7] of 18.4 mL/min/kg, a half-life [3, 7] of 21.7 min and a Vd [3, 7] of 0.463 L/kg. The “Exposure versus dose (conclusion)” value ([3]; rats, intravenous) was “increases linearly”, the “Drug resistance rate (conclusion)” value ([4]; 2-fold of MIC, E. coli ATCC 25922) was “lower drug resistance rate” and the “Drug resistance frequency (24 h)” value ([4]; 2 × MIC) was <3.85E−09. For the same compound, the “Drug resistance frequency (48 h)” value ([4]; 2 × MIC) was <3.85E−09, the “Drug resistance frequency (72 h)” value ([4]; 2 × MIC) was “=3.85E−09” and the “Drug resistance frequency (24 h)” value ([4]; 4 × MIC) was <3.85E−09. For the same compound, the “Drug resistance frequency (48 h)” value ([4]; 4 × MIC) was <3.85E−09, the “Drug resistance frequency (72 h)” value ([4]; 4 × MIC) was <3.85E−09 and the “Drug resistance frequency (24 h)” value ([4]; 8 × MIC) was <3.85E−09. The “Drug resistance frequency (48 h)” value ([4]; 8 × MIC) was <3.85E−09, the “Drug resistance frequency (72 h)” value ([4]; 8 × MIC) was <3.85E−09 and the “Drug resistance frequency (24 h)” value ([4]; 16 × MIC) was <3.85E−09. For the same compound, the “Drug resistance frequency (48 h)” value ([4]; 16 × MIC) was <3.85E−09, the “Drug resistance frequency (72 h)” value ([4]; 16 × MIC) was <3.85E−09 and the “Drug resistance frequency (24 h)” value ([4]; 32 × MIC) was <3.85E−09. For the same compound, the “Drug resistance frequency (48 h)” value ([4]; 32 × MIC) was <3.85E−09 and the “Drug resistance frequency (72 h)” value ([4]; 32 × MIC) was <3.85E−09.
